Data: patent US20250306034A1, “Detection of Liver Disease” (Owlstone Medical Limited, priority 2022, published 2025)

How the values were obtained:
[1] = target: AKR1B10 (Homo sapiens, UniProt O60218); assay: Bioproduct production in A549 WT and AKR1B10 KO cells, headspace GC-MS; details: for substrate of AKR1B10 (converted to 1-nonanol / trans-2-hexenol by this enzyme): WT versus AKR1B10 KO A549 cells
Description: We have tested conversion of these substrates to the respective bioproduct 1-nonanol, trans-2-hexenol, hexenol, benzyl alcohol, and nerol, in a cancer cell line overexpressing AKR1B10.
A549 lung cancer cells were targeted with a CRISP/Cas system to ablate the protein expression of AKR1B10. Specific sgRNA for the AKR1B10 gene were co-transfected in cells with SpCas9 using ribonucleoproteins (RNPs). Clonal cells were generated by using limiting dilution. […] Resulting protein extract for WT and AKR1B10 KO cells were analysed using the Jess system and samples were probed with an AKR1B10 specific antibody, and with an antibody against α-Tubulin as independent reporter.
5×10^4 cells/mL of WT or 3 AKR1B10 KO clone cells were seeded in 24-well plates using cell culture media and let adhere and proliferate for 48 hours to confluence. Then, they were treated with 30 μM nonanal or 10 µM trans-2-hexenal. […] Headspace analysis was performed by using Centri, coupled with a GC-MS Orbi-trap system. Peak identification of nonanal, 1-nonanol, trans-2-hexenal, and trans-2-hexenol, was performed by comparing the peak against reference standards.

[2] = test system: healthy and NASH hepatocytes; details: for level of probe in presence of NASH and healthy hepatocytes compared with absence of hepatocytes: 50 ng/μL in culture medium, aliquots 0.5 to 24 hours
Description: Organ-on-a-chip containing healthy human hepatocytes and human hepatocytes treated to generate a model of a healthy or NASH liver disease were used in the following experiments. The Organ-on-a-chip containing healthy human hepatocytes are similar to the Organ-on-a-chip described above, but the experiment also included a model of NASH hepatocytes. The latter are obtained by treating healthy hepatocytes with Kupfer cells and hepatocytes stellate cells.
Primary human hepatocytes (PHHs), Kupffers cells (KCs), and hepatic stellate cells (HSCs) were seeded onto CN-Bio's PhysioMimix LC12 MPS culture plates at 6×10^5 cells for PHHs and 6×10^4 cells for HKCs and HSCs (necessary to induce the NASH phenotype) per well in CN-Bio's seeding medium. Throughout the experiment the cells were maintained at a medium flow rate of 1 μl/s. At days 4, 6, 8, 11, and 12 post seeding, medium aliquots were taken to measure LDH and albumin to assess cell health. At day 13 (24 hours post VOCs treatment), final medium collection for analysis was performed. Scaffolds were fixed in 4% formaldehyde for Oil Red O staining to assess lipid accumulation.
Primary hepatocytes were treated with 2-butanol and nonanal diluted in the hepatocytes culture medium at a concentration of 50 ng/μL. Aliquots of the culture medium were collected at 0.5, 1, 2, 4, 6, and 24 hours. The remaining medium-compound mix that was not added to the cells was considered as 0 timepoint reference. Headspace analysis was performed by using Centri, an automated system used to collect VOCs in the headspace, coupled with a GC-MS Orbi-trap system, a high-resolution mass spectrometer for detection and quantification of VOCs. Peak identification of 2-butanol, 2-butanone, nonanal, and 1-nonanol was performed by comparing the peak against a reference standard. A p-value<0.05 was considered as statistically significant.

[3] = test system: healthy human hepatocytes; assay: Metabolism of VOCs by healthy human hepatocytes (organ-on-a-chip)
Description: Organ-on-a chip samples were used.
Organ-on-a chip is a three-dimensional hepatocytes culturing system developed by a company called CN-Bio Ltd. Aliquots of media spiked with VOCs and collected at different time points are analysed using CENTRI-GC-MS a system for VOCs headspace detection and quantification. The experiment contained samples from healthy hepatocytes in the culture medium exposed to 2-butanol, nonanal at one of the concentrations: 50, 10, 2 and 0 ng/μL, and the control which is the culture medium without hepatocytes containing 2-butanol, and nonanal of the same concentration.
System suitability test (SST) and […] standards check (0, 2, 10 and 50 ng/μL), were run in duplicate at the beginning, in the middle and at the end of the sequence to mitigate against the risk of an instrumental deviation.
Empty tubes were also run at the beginning, in the middle and at the end of the sequence to mitigate against the risk of a carryover 0.5 μL Internal standards (1000 ng/μL) were spiked into each sample prior to analysis.

[4] = Nonanal and 2-butanol washout in breath of volunteers; details: three volunteers; swallowed emulsion with 500 mg of Nonanal and 100 mg of 2-butanol; GC-MS
Description: An analysis of nonanal and 2-butanol washout of breath samples collected from three volunteers investigated before and after the intake of 500 mg of Nonanal and 100 mg of 2-butanol was performed. Three breath collections have been performed per each volunteer.
Three Volunteers participated in this trial for 3 times. They swallowed an emulsion containing 500 mg of Nonanal and 100 mg of 2-butanol and their breath was collected at 8 different time points before and after the emulsion intake using the ReCIVA, a face mask containing tubes for breath collection, and storage of exhaled VOCs.
Appearance on breath and conversion of the probes to their bioproducts was measured using gas-chromatography mass-spectrometry (GC-MS).

[5] = Blood levels of bioproducts in NASH rat model (CDHFD vs normal diet); details: for time after administration at which blood concentration increases / blood levels, CDHFD compared to ND rats: after oral 2-butanol 440 mg/Kg; for blood levels, CDHFD compared to ND rats: at 8 and 12 hours (480, 720 minutes)
Description: Blood samples were analysed using gas chromatography mass spectrometry (GC/-MS) or HPLC to measure metabolitic bioproducts benzoic acid, 3-hydroxy-2-butanone, 2-3-butanediol, and 2,3-pentanediol.
A total of 18 Wistar Han rats were acclimatized for 6 days. After that time, 9 rats remained on a normal diet, while 9 rats were switched to a choline deficient high fat diet (CDHFD) (L-Amino Acid Diet With 45 kcal % Fat With 0.1% Methionine, No Added Choline and 1% Cholesterol) (Research Diet, catalog #A16092003, https://researchdiets.com/en/formulas/a16092003). Rats had ad libitum access to food and water at all times unless differently specified. Body weight was measured every week.
Following 10 weeks of diet treatment, rats were randomised into groups each group composed of 3 healthy and 3 NASH rats for dosing with the different compounds.
Each group received an emulsion containing the compounds reported in table 1 at the indicated amount.
Each compound preparation was administered as an emulsion containing 15% Tween80 diluted in water to deliver the target amount in 5 mL/kg body weight. The emulsion was administered by oral gavage after the rats were fasted for 16 hours.
Blood samples were collected pre (0 min) and post compound administration at the following timepoints: 5 min, 15 min, 30 min, 1 h, 1.5 h, 2 h, 4 h, 8 h, 12 h, and 24 h.
At each time point, ˜200 μL blood samples were collected into EDTA-K2 tubes and placed on wet ice until centrifugation. Plasma was generated, from the blood samples, by centrifugation at approximately 4° C., 3,200 g for 5 min.
A total of 100 μL of plasma was collected respectively and transferred into Eppendorf tubes. Of these, 95 μL of plasma were spiked with 400 μL of internal standard in acetonitrile, vortexed for 30s and centrifuged for 15 min at 3220 g. A total of 100 μL of supernatant was used for compounds quantification, unless differently specified.
Response for each compound was normalized by the response of the internal standard, and absolute quantification was performed against a calibration curve.

[6] = hepatocytes treated with 2-butanol and nonanal at 50 ng/μL
[7] = after oral 2-pentanone 160 mg/Kg

AKR1B10, sequence (O60218 whole entry): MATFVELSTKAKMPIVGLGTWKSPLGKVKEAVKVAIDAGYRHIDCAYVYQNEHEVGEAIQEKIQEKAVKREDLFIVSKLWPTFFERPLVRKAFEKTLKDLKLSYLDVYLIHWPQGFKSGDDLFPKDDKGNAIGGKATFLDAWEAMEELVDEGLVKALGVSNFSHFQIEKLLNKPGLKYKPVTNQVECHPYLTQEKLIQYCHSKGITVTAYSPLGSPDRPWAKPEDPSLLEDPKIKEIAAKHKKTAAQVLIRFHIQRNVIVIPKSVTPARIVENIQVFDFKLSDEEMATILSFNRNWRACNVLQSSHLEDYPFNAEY

With `CCC/C=C/C=O` [trans-2-hexenal] the “bioproduct generation after ablation of AKR1B10 or treatment of the cells with AKRs inhibitors” value [1] was “reduced or absent bioproduct generation”, the “substrate of AKR1B10 (converted to 1-nonanol / trans-2-hexenol by this enzyme)” value [1] was “substrates for AKR1B10” and the “production of bioproduct of trans-2-hexenal, levels in WT compared to AKR1B10 KO cells” value ([1]; human, 10 μM) was 10 times higher. The “level of trans-2-hexenal in medium added to WT or AKR1B10 KO cell lines, versus medium without cells” value ([1]; human, 3 h, 10 μM) was “increased reduction over 3 hours” and the “conversion of the substrate to the respective bioproduct” value (“conversion of the substrate” below) ([1]; human, 6 h) was “conversion to the bioproducts in a timeframe of 6 hours”.
For `CCCCCCCCC=O` [nonanal], the “bioproduct generation after ablation of AKR1B10 or treatment of the cells with AKRs inhibitors” value [1] was “reduced or absent bioproduct generation”, the “substrate of AKR1B10 (converted to 1-nonanol / trans-2-hexenol by this enzyme)” value [1] was “substrates for AKR1B10” and the “level of nonanal in medium added to WT or AKR1B10 KO cell lines, versus medium without cells” value ([1]; human, 3 h, 30 μM) was “increased reduction over 3 hours”. For the same compound, the “conversion of the substrate” value ([1]; human, 6 h) was “conversion to the bioproducts in a timeframe of 6 hours” and the “level of probe in presence of NASH and healthy hepatocytes compared with absence of hepatocytes” value [2] was “more marked reduction”.
In the case of `CCC(C)=O` [2-butanone], the “level of bioproduct over time in media with hepatocytes” value ([3]; hepatocytes exposed to nonanal and 2-butanol, 50, 10, 2 and 0 ng/μL) is reported as “a spike and subsequent decrease”, the “area of the bioproduct peak, NASH versus healthy hepatocytes” value [2, 6] is reported as “the area under the peak for healthy is larger than for NASH” and the “production of bioproduct, NASH versus healthy hepatocytes” value [2, 6] is reported as “Healthy hepatocytes showed higher production of 2-butanone at 6 hours”.
In the case of `CC(C)=CCCC(C)=CC=O` [citral], the “conversion of the substrate” value ([1]; human, 6 h) is reported as “conversion to the bioproducts in a timeframe of 6 hours”.
In the case of `CCCCCC=O` [hexanal], the “conversion of the substrate” value ([1]; human, 6 h) is reported as “conversion to the bioproducts in a timeframe of 6 hours”.
In the case of `O=Cc1ccccc1` [benzylaldehyde], the “conversion of the substrate” value ([1]; cancer cell line overexpressing AKR1B10, substrates added to the culture media) is reported as “conversion to the bioproducts in a timeframe of 6 hours”.
With `CCC(C)O` (centres unmarked) [2-butanol] the “detection in breath samples after emulsion intake” value [4] was “detected”, the “level of probe over 24 hours in media alone and media with hepatocytes” value ([3]; 50, 10, 2 and 0 ng/μL, healthy hepatocytes, headspace GC-MS) was “a decrease both in media alone and media with hepatocytes” and the “level of probe in presence of NASH and healthy hepatocytes compared with absence of hepatocytes” value [2] was “more marked reduction at 24 h”.
In the case of `CC(=O)C(C)O` (centres unmarked) [3-hydroxy-2-butanone], the “time after administration at which blood concentration increases” value [5] is reported as 240 min and the “blood levels, CDHFD compared to ND rats” value [5] is reported as “higher levels in CDHFD compared to ND rats”.
For `CCC(O)C(C)O` (centres unmarked) [2,3-pentanediol], the “blood levels, CDHFD rats compared to ND rats” value [5, 7] was “higher in CDHFD rats compared to ND rats after 4 hours” and the “time after administration after which blood levels increased” value [5, 7] was 1 h.
In the case of `CC(O)C(C)O` (centres unmarked) [2,3-butanediol], the “time after administration at which blood concentration increases” value [5] is reported as 240 min and the “blood levels, CDHFD compared to ND rats” value [5] is reported as “higher levels in CDHFD compared to ND rats”.
For `CCCCCCCCCO` [1-nonanol], the “production of 1-nonanol, levels in WT compared to AKR1B10 KO cells” value ([1]; human, 30 μM) was 3 times higher.
